Biological target: human NaV subtype, like NaV 1.7 (Homo sapiens, UniProt Q15858)
Assay: E-VIPR optical membrane potential assay with electrical stimulation
Assay type: cell-based
Conditions: active against one or more sodium channels; Table 3 does not name the assay or NaV subtype; read-out: Binned Activity Data (IC50)
Description: Assays for Detecting and Measuring NaV Inhibition Properties of Compound E-VIPR Optical Membrane Potential Assay Method with Electrical Stimulation
Sodium channels are voltage-dependent proteins that can be activated by inducing membrane voltage changes by applying electric fields. The electrical stimulation instrument and methods of use are described in Ion Channel Assay Methods PCT/US01/21652, herein incorporated by reference and are referred to as E-VIPR. The instrument comprises a microtiter plate handler, an optical system for exciting the coumarin dye while simultaneously recording the coumarin and oxonol emissions, a waveform generator, a current- or voltage-controlled amplifier, and a device for inserting electrodes in well. Under integrated computer control, this instrument passes user-programmed electrical stimulus protocols to cells within the wells of the microtiter plate.
24 hours before the assay on E-VIPR, HEK cells expressing human NaV subtype, like NaV 1.7, are seeded in 384-well poly-lysine coated plates at 15,000-20,000 cells per well. Other subtypes are performed in an analogous mode in a cell line expressing the NaV of interest. HEK cells are grown in media (exact composition is specific to each cell type and NaV subtype) supplemented with 10% FBS (Fetal Bovine Serum, qualified; GibcoBRL #16140-071) and 1% Pen-Strep (Penicillin-Streptomycin; GibcoBRL #15140-122). Cells are grown in vented cap flasks, in 90% humidity and 10% CO2, to 100% confluence. They are usually split by trypsinization 1:10 or 1:20, depending on scheduling needs, and grown for 2-3 days before the next split.
Bath 1 buffer. Glucose 10 mM (1.8 g/L), Magnesium Chloride (Anhydrous), 1 mM (0.095 g/L), Calcium Chloride, 2 mM (0.222 g/L), HEPES 10 mM (2.38 g/L), Potassium Chloride, 4.5 mM (0.335 g/L), Sodium Chloride 160 mM (9.35 g/L).
Hexyl Dye Solution: Bath 1 Buffer+0.5% β-cyclodextrin (make this prior to use, Sigma #C4767), 8 μM CC2-DMPE+2.5 μM DiSBAC6(3). To make the solution Add volume of 10% Pluronic F127 stock equal to volumes of CC2-DMPE+DiSBAC6(3). The order of preparation is first mix Pluronic and CC2-DMPE, then add DiSBAC6(3) while vortexing, then add Bath 1+β-Cyclodextrin.
1) Pre-spot compounds (in neat DMSO) into compound plates. Vehicle control (neat DMSO), the positive control (20 mM DMSO stock tetracaine, 125 μM final in assay) and test compounds are added to each well at 160× desired final concentration in neat DMSO. Final compound plate volume will be 80 μL (80-fold intermediate dilution from 1 μL DMSO spot; 160-fold final dilution after transfer to cell plate). Final DMSO concentration for all wells in assay is 0.625%.
2) Prepare Hexyl Dye Solution.
3) Prepare cell plates. On the day of the assay, medium is aspirated and cells are washed three times with 100 μL of Bath 1 Solution, maintaining 25 μL residual volume in each well.
4) Dispense 25 μL per well of Hexyl Dye Solution into cell plates. Incubate for 20-35 minutes at room temp or ambient conditions.
5) Dispense 80 μL per well of Bath 1 into compound plates. Acid Yellow-17 (1 mM) is added and Potassium Chloride can be altered from 4.5 to 20 mM depending on the NaV subtype and assay sensitivity.
6) Wash cell plates three times with 100 μL per well of Bath1, leaving 25 μL of residual volume. Then transfer 25 uL per well from Compound Plates to Cell Plates. Incubate for 20-35 minutes at room temp/ambient condition
7) Read Plate on E-VIPR. Use the current-controlled amplifier to deliver stimulation wave pulses for typically 9 seconds and a scan rate of 400 Hz. A pre-stimulus recording is performed for 0.5 seconds to obtain the un-stimulated intensities baseline. The stimulatory waveform is applied for 9 seconds followed by 0.5 seconds of post-stimulation recording to examine the relaxation to the resting state.

human NaV subtype, like NaV 1.7, sequence (Q15858 whole entry): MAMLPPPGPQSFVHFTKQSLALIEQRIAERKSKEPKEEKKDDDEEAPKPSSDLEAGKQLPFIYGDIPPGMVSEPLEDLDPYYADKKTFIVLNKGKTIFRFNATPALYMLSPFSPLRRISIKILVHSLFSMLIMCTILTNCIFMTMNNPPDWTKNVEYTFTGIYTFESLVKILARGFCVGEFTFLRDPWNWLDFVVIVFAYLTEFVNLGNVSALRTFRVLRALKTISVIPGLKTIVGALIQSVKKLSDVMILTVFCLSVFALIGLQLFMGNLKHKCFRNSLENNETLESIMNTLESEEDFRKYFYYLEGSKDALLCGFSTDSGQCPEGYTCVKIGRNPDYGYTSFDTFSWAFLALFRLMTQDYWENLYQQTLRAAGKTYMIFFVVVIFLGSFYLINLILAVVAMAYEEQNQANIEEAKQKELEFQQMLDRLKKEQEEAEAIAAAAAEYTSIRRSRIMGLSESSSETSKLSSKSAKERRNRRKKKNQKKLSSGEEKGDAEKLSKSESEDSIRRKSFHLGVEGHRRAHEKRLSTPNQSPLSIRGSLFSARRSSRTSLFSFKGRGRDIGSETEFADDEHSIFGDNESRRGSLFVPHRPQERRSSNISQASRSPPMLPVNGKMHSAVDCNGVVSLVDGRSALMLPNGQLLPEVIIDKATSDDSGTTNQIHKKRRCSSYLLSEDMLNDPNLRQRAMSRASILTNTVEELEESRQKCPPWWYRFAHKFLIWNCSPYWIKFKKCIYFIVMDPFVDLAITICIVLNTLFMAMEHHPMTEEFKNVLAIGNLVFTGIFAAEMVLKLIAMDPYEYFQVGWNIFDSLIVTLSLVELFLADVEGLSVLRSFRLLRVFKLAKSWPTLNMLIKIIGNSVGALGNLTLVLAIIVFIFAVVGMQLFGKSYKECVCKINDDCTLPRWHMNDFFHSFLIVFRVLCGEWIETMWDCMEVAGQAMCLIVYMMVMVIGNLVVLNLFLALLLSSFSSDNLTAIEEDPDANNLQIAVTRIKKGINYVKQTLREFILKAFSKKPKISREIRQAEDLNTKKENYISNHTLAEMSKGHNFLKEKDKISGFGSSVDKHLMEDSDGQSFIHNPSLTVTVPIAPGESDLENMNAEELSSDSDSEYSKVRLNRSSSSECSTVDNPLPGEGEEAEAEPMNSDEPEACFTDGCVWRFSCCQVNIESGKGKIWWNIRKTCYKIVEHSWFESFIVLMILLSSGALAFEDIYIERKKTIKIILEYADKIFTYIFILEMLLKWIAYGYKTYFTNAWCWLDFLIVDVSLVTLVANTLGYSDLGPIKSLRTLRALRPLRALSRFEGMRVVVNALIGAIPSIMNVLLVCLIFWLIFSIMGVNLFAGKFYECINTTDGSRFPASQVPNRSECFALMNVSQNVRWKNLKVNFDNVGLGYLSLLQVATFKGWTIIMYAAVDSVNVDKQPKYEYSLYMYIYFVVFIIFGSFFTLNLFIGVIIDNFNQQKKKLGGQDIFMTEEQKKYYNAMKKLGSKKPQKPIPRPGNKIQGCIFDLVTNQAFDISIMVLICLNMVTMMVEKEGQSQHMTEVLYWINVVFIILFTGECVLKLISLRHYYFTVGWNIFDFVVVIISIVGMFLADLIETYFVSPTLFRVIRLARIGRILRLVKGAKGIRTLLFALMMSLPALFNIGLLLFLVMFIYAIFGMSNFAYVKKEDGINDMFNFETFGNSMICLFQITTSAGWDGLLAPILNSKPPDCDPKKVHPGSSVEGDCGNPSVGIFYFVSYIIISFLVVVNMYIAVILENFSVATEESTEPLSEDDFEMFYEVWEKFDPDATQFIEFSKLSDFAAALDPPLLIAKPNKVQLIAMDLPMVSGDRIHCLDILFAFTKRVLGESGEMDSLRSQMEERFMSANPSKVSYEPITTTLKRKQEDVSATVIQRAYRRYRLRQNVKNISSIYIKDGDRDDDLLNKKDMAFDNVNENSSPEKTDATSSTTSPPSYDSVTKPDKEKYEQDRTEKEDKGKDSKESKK

IC50 [nM] | SMILES
≤ 2000 | CCCCCc1ccc(C(=O)N2CCC3(CC2)c2ccc(C(C)=O)n2CCN3C)cc1 [Compound 92]
≤ 2000 | CN1CCn2c(C(=O)C(C)(C)C)ccc2C12CCN(C(=O)c1ccc(S(=O)(=O)C(F)(F)F)cc1)CC2 [Compound 93]
2000 to 5000 | CCCN(CCC)S(=O)(=O)c1ccc(C(=O)N2CCC3(CC2)c2ccc(C(C)=O)n2CCN3C)cc1 [Compound 94]
≤ 2000 | CN1CCn2c(C(F)(F)F)cc(Cl)c2C12CCN(C(=O)c1ccc(C(C)(C)O)c(F)c1)CC2 [Compound 95]
≤ 2000 | Cc1cc(C(=O)N2CCC3(CC2)c2ccc(C(F)(F)C(F)(F)F)n2CCN3C)ccc1OCCCO [Compound 96]
≤ 2000 | CN1CCn2c(C(=O)C(C)(C)C)ccc2C12CCN(C(=O)c1ccc(O)c(C(F)(F)F)c1)CC2 [Compound 97]
≤ 2000 | Cc1cc(C(=O)N2CCC3(CC2)c2ccc(C(F)(F)F)n2CCN3C)ccc1C(C)(C)O [Compound 98]
2000 to 5000 | COc1ccccc1C(=O)N1CCC2(CC1)c1ccc(C(F)(F)F)n1CCN2C [Compound 99]
≤ 2000 | CC(C)Oc1ccc(C(=O)N2CCC3(CC2)c2ccc(C(F)(F)F)n2CCN3C)cc1Cl [Compound 100]
≤ 2000 | CN1CCn2c(C(=O)C(F)(F)F)ccc2C12CCN(C(=O)c1ccc(C3CCCCC3)cc1)CC2 [Compound 101]
≤ 2000 | CN1CCn2c(C(F)(F)F)cc(Cl)c2C12CCN(C(=O)c1ccc(COCCC(F)(F)F)cc1)CC2 [Compound 102]
≤ 2000 | CC1(C)Cn2c(C(=O)C(F)(F)F)ccc2C2(CCN(C(=O)c3ccc(COCCC(F)(F)F)cc3)CC2)N1 [Compound 103]
> 5000 | CN1CCn2c(Cl)ccc2C12CCN(C(=O)c1ccc(-c3ccccc3)cc1)CC2 [Compound 104]
≤ 2000 | COc1cc(C(=O)N2CC[C@]3(c4ccc(C(F)(F)F)n4CCN3C)[C@H](F)C2)ccc1OC(C)C [Compound 105]
≤ 2000 | Cc1cc(C(=O)N2CCC3(CC2)c2ccc(C(F)(F)F)n2CCN3C2CCC2)ccc1OC(C)C [Compound 106]
≤ 2000 | CCC(=O)c1ccc2n1CCN(C)C21CCN(C(=O)c2ccc(OC(C)C)c(Cl)c2)CC1 [Compound 107]
2000 to 5000 | CC(C)Oc1ccc(C(=O)N2CCC3(CC2)N[C@@H](C)Cn2c(C(F)(F)F)ccc23)cc1F [Compound 108]
> 5000 | Cc1cccc(C(=O)N2CCC3(CC2)c2ccc(C(F)(F)F)n2CCN3C)c1 [Compound 109]
≤ 2000 | COc1cc(C(=O)N2CCC3(CC2)N[C@H]2CCCC[C@H]2n2cccc23)ccc1C(C)(C)C [Compound 110]
> 5000 | CC(C)Oc1ccc(C(=O)N2CCC3(CC2)c2ccc(S(C)(=O)=O)n2CCN3C)cc1Cl [Compound 111]
≤ 2000 | CN1CCn2c(C(F)(F)F)cc(F)c2C12CCN(C(=O)c1ccc(C3(O)CCC3)c(F)c1)CC2 [Compound 112]
≤ 2000 | COc1cc(C(=O)N2CCC3(CC2)c2c(F)cc(C(F)(F)F)n2CCN3C)ccc1OC(F)F [Compound 113]
≤ 2000 | COc1cc(C(=O)N2CCC3(CC2)c2ccc(C(=O)C(F)(F)F)n2C(C)CN3C)ccc1OCCOC(F)(F)F (stereo not shown) [Compound 114]
≤ 2000 | CCCCOc1cc(C(=O)N2CCC3(CC2)c2ccc(C(=O)C(F)(F)F)n2CCN3C)ccc1OC [Compound 115]
> 5000 | CN1CCn2c(C(F)(F)F)ccc2C12CCN(C(=O)c1cccnc1N1CCC(O)C1)CC2 (stereo not shown) [Compound 116]
≤ 2000 | Cc1cc(C(=O)N2CCC3(CC2)c2ccc(C(=O)C(F)(F)F)n2CCN3C)ccc1OC(C)C [Compound 117]
≤ 2000 | COc1cc(C(=O)N2CCC3(CC2)c2c(F)cc(C(F)(F)F)n2CCN3C)ccc1OC(C)C [Compound 118]
≤ 2000 | CNC(=O)N1CCn2c(C(F)(F)F)ccc2C12CCN(C(=O)c1ccc(OC(C)C)c(OC)c1)CC2 [Compound 119]

IC50 [nM] | SMILES
2000 to 5000 | Cc1cc(C(=O)N2CCC3(CC2)c2c(C#N)cc(C(F)(F)F)n2CCN3C)ccc1C(C)(C)O [Compound 120]
> 5000 | COc1ccc(C(=O)N2CCC3(CC2)c2ccc(C(=O)C(F)(F)F)n2CCN3C)cc1F [Compound 121]
≤ 2000 | CC(=O)c1ccc2n1CCN(C)C21CCN(C(=O)c2ccc(OC(C)C)c(C)c2)CC1 [Compound 122]
≤ 2000 | CN1CCn2c(C(F)(F)F)ccc2C12CCN(C(=O)c1ccc(S(=O)(=O)N3CCCC3)cc1)CC2 [Compound 123]
≤ 2000 | CC(C)Oc1ccc(C(=O)N2CCC3(CC2)c2ccc(C(=O)C4CC4)n2CCN3C)c(F)c1 [Compound 124]
2000 to 5000 | CC(=O)c1ccc2n1CCN(C)C21CCN(C(=O)c2ccc(OC(C)C)cc2F)CC1 [Compound 125]
2000 to 5000 | COc1cc(C(=O)N2CCC3(CC2)c2ccc(C(=O)C(F)(F)F)n2C(C)(C)CN3C)ccc1OC(C)C [Compound 126]
≤ 2000 | CCCOc1ccc(C(=O)N2CCC3(CC2)c2ccc(C(=O)C(F)(F)F)n2CCN3C)cc1 [Compound 127]
≤ 2000 | Cc1cc(C(=O)N2CCC3(CC2)NCC(C)(C)n2c(C(F)(F)F)ccc23)ccc1C(C)(C)O [Compound 128]
≤ 2000 | COc1ccc(C(=O)N2CCC3(CC2)NC(C)(C)Cn2c(C(=O)C(F)(F)F)ccc23)cc1Cl [Compound 129]
2000 to 5000 | COc1ccc(C(=O)N2CCC3(CC2)c2ccc(C(=O)C(F)(F)F)n2CCN3C)cc1-c1ccccc1 [Compound 130]
≤ 2000 | Cc1cc(C(=O)N2CCC3(CC2)NC(C)(C)Cn2c(C(=O)C(F)(F)F)ccc23)ccc1OC(C)C [Compound 131]
≤ 2000 | COc1ccc(C(=O)N2CCC3(CC2)c2ccc(C(=O)C4CC4)n2CCN3C)cc1C(F)(F)F [Compound 132]
≤ 2000 | COc1cc(C(=O)N2CCC3(CC2)NCCn2c(C(F)(F)F)ccc23)ccc1C(C)(C)CO [Compound 133]
≤ 2000 | CC(C)Oc1ccc(C(=O)N2CCC3(CC2)c2c(F)cc(C(F)(F)F)n2CCN3C)cc1C#N [Compound 134]
≤ 2000 | CC(C)Oc1ccc(C(=O)N2CCC3(CC2)NCCn2c(C(F)(F)F)ccc23)cc1Cl [Compound 135]
≤ 2000 | CN1CCn2c(C(=O)C(F)(F)F)ccc2C12CCN(C(=O)c1ccc(C(CO)OCC(F)(F)F)cc1)CC2 (stereo not shown) [Compound 136]
≤ 2000 | COc1cc(C(=O)N2CCC3(CC2)c2ccc(C(=O)C(C)(C)C)n2CCN3C)ccc1OC(C)C [Compound 137]
≤ 2000 | Cc1cc(C(=O)N2CCC3(CC2)c2ccc(C(F)(F)F)n2CCN3C(=O)N(C)C)ccc1OC(C)C [Compound 138]
> 5000 | CC(=O)c1cc2n(c1)CC(C)(C)NC21CCN(C(=O)c2ccc(OC(C)C)c(C(F)(F)F)c2)CC1 [Compound 139]
≤ 2000 | Cc1cc(C(=O)N2CCC3(CC2)c2ccc(C(=O)C(C)C)n2CCN3C)ccc1O [Compound 140]
≤ 2000 | CC[C@H](C)Oc1ccc(C(=O)N2CCC3(CC2)c2c(F)cc(C(F)(F)F)n2CCN3C)cc1OC [Compound 141]
≤ 2000 | CCCOc1cc(C(=O)N2CCC3(CC2)c2ccc(C(=O)C(F)(F)F)n2CCN3C)ccc1OC [Compound 142]
≤ 2000 | CC(C)CCOc1ccc(C(=O)N2CCC3(CC2)c2ccc(C(=O)C(F)(F)F)n2CCN3C)cc1 [Compound 143]
≤ 2000 | COc1cc(C(=O)N2CCC3(CC2)c2ccc(C(=O)C(C)C)n2CCN3C)ccc1OC(C)C [Compound 144]
> 5000 | O=C(c1ccc(S(=O)(=O)NC2CC2)cc1)N1CCC2(CC1)c1ccc(C(F)(F)F)n1CCN2C1CCC1 [Compound 145]
≤ 2000 | CCCCOc1ccc(C(=O)N2CCC3(CC2)c2ccc(C(=O)C(F)(F)F)n2CCN3C)cc1OC [Compound 146]

From patent US8916565B2, “Pyrrolopyrazine-spirocyclic piperidine amides as modulators of ion channels” (priority 2011, dated 2014)
